Measured values taken from US8748566B2, “Pharmacologically active antiviral peptides and methods of use” (priority 2000, dated 2014).

Columns and labels:
Format in all cases: cell-based
Vero cells = assay: Trypan-blue exclusion assay (cytotoxicity)
Description: Uninfected Vero cells in serum-free or serum-supplemented DMEM where treated for 1 hour at 37° C. with antiviral peptide SEQ ID NO:1 or control peptide EBX (SEQ ID NO:17), rinsed with PBS, stained for […] at 23° C. with 0.4% trypan-blue in PBS, rinsed again with PBS and air dried.

hrR3 = assay: LacZ+ virus (hrR3) entry assay
Description: Confluent Vero cell cultures in 96-well microtiter plates were switched to Hepes-buffered serum-free DMEM, cooled on ice to 4° C. for 30 min, and infected with hrR3 for 1 hour at 4° C. in 40 μl of medium. Unattached virus was removed by rinsing with ice-cold medium. Treatments with antiviral peptide SEQ ID NO:1, referred to as EB, or a control peptide which comprised the RRKK tetra-peptide (SEQ ID NO:16) attached to a scrambled version of the membrane transiting peptide RRKKLAALPLVLAAPLAVLA (SEQ ID NO:17) (referred to as EBX), or mock-treatments with peptide-free medium were carried out in serum-free DMEM as indicated. Virus entry was initiated by transferring cultures to 37° C. To inactivate any remaining extracellular virus, cultures were rinsed with PBS and exposed to low pH citrate buffer (40 mM citric acid, 10 mM KCl, 135 mM NaCl, pH 3.0, according to Highlander et al., J. Virol. 61:3356 (1987), for 1 min at 23° C. The citrate was rinsed off with PBS and cultures were maintained in serum-supplemented DMEM until they were fixed with 0.5% gluteraldehyde in 5×PBS for 30 min at 23° C., stained for β-galactosidase activity for 1 hour or overnight at 23° C. with X-gal (Fisher Biotech; BP 1615-1) in 1×PBS containing […], 1.3 mM K4Fe(CN)6, and 1.3 mM K3Fe(CN)6, and scored for the presence of blue lacZ^+ cells.
In these studies, the hrR3 virus was pre-adsorbed to cells for 1 hour at 4° C. before ice cold 25 μM EB or EBX were added in serum-free DMEM. After an additional 1 hour at 4° C., cultures were shifted to 37° C. to initiate virus entry. At 15 min intervals following the temperature shift, any virus remaining outside the cells was inactivated by washing the cultures with low pH citrate buffer. Cultures were then rinsed and returned to peptide-free serum-supplemented DMEM until they were fixed and stained for f-galactosidase 8 hours after the temperature shift.
This conclusion is strengthened by the finding that the EB-sensitive phase of infection with pre-adsorbed virus clearly precedes expression of lacZ genes in hrR3 infected cells (FIG. 7A). Again, hrR3 was pre-adsorbed to cells for 1 hour at 4° C., unattached virus was rinsed off, and cells were kept for an additional hour at 4° C. Cultures were then transferred to 23° C. for 30 min before they were switched to 37° C. The more gradual change to 37° C. allowed cell layers to remain intact through subsequent frequent medium changes. Immediately following viral adsorption, cells were treated with 50 μM EB for 1 hour periods at consecutive 1 hour intervals. Between 1 and 4 hours post-infection, virus entry was inhibited by 70-80%. […] Parallel cultures were immediately fixed after mock-treatments and stained with X-gal. In these cultures, blue (lacZ^+) cells first appeared 7 hours post-infection and their number increased nearly linearly for the next 3 hours (FIG. 7A, (∘)). By 7 hours post-infection, EB ceased to be inhibitory.

HSV-1 KOS = assay: Yield reduction assay (virus production in infected Vero cells); settings: added one hour prior to infection; EB statement for concentrations exceeding 10 μM (FIG. 3)
Description: Three days post-infection, Vero cell cultures in microtiter plates were frozen (−80° C.) and thawed (37° C.) three times. Cells were suspended by repeated pipetting and microtiter plates were spun for 10 min at 700×g in a Beckman model TJ-6 tabletop centrifuge. The virus-containing supernates were serially diluted in regular medium and titered on Vero cells. Plaques were counted after staining the monolayers with crystal violet as taught by Grau et al., Invest. Ophthalmol. Vis. Sci. 30:2474 (1989).
Vero cell cultures as prepared in Example 1 were infected with HSV-1 and assayed for virus production as described in Example 1. The antiviral activity of an antiviral peptide according to the present invention EB (SEQ ID NO:1) was compared to the antiviral activity of the current HSV antiviral nucleoside standard, acyclovir. The two peptides were added to the Vero cells one hour prior to infection with HSV.

H-RRKKAAVALLPAVLLALLAP-OH [EB]
cytotoxic concentrations relative to antiviral concentrations (Vero cells): 100 fold
inhibition of virus entry (hrR3; 50 μM EB for 1 hour periods, between 1 and 4 hours post-infection (FIG. 7A)): 70-80%
effect on development of lacZ+ cells (hrR3; peptide added immediately after each citrate treatment (FIG. 6B)): no longer had any effect
antiviral activity, EB compared with acyclovir (HSV-1 KOS): greatest antiviral activity
